Source: patent US12730111B2, “Systems, methods, and compositions to identify new protein targets of a chemical compound or its derivatives” (priority 2019, dated 2026)
Values belong to the compound of their own block, whether it stands above or below them.

Assays:
[1] = system: protein asymmetric dimethylarginine (ADMA) in HeLa cells; test: Protein ADMA levels in cultured HeLa cells (immunoblot); assay type: cell-based; conditions: for levels of protein ADMA in cell culture: 50 μM, short-term treatment
Description: Each group contained the same volume of DMSO and ethanol. After wash with TBS for three times, the cells were lysed with 900 μL RIPA lysis buffer and centrifuged to pellet down the debris. The supernatant was then transferred to a new tube and mixed with equal volume of 2×SDS sample buffer. Ten μL sample solution was for electrophoresis and immunoblotting. The signal of anti-GAPDH was used to adjust the amount of protein loading.
Since Bay 11-7082 inhibited PRMT1 activity in an in vitro assay, we then tested the inhibitory activity of this compound in cultured HeLa cells. The levels of ADMA are regulated by both methylation and demethylation. […] Some proteins of ADMA persisted several days in the absence of PRMT1. […] We also used histone H4R3 asymmetric dimethylation antibody as one kind of pan ADMA antibody (right panel, Supplementary FIG. 5). However, we noticed that the ADMA signals of one or two proteins increased in this experiment possibly due to the compensation activity caused by other PRMT family proteins (39) or disturbance of cell cycle progression affected by other target proteins of Bay 11-7082 (40). It is of interest to note that phenylsulfonyl structure present in Bay 11-7082 is also found in a PRMT1 inhibitor, C-7280948 (41), indicating the Bay 11-7082 could be a good lead compound for developing PRMT1 inhibitors. […] We included another Bay 11-7082 analog, Bay 11-7085 for comparison (42, 43).

[2] = biological target: T1, Recombinant glutathione reductase (Homo sapiens, UniProt P00390); test: In vitro enzyme activity of glutathione reductase; assay type: biochemical
T1 construct: purchased BioVision
T1 sequence (P00390 44-522): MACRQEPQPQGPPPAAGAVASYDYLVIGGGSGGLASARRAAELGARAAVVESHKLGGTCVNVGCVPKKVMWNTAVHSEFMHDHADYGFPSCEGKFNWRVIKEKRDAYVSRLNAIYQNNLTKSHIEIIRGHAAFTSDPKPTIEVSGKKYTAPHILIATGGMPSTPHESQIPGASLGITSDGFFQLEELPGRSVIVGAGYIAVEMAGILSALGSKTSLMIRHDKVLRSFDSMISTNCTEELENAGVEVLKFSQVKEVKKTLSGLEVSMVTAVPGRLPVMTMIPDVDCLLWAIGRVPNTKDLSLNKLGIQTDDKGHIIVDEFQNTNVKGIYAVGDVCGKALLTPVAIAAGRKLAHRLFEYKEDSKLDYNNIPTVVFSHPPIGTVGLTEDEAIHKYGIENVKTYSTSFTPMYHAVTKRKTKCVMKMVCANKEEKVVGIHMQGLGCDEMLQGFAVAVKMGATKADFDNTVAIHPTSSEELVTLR
Description: Recombinant glutathione reductase was first treated with NADPH and 10 or 50 μM PVS, PVSN or Bay 11-7082 for 1 h at room temperature. In the control group, recombinant glutathione reductase was treated with NADPH and the same volume of DMSO used in the treatment of drugs in the assay buffer. Following the addition of oxidized glutathione, the decrease in absorbance at A340 was monitored over 10 min. Results were presented as mean of three independent experiments plus and minus standard deviation.
The assay was carried out according to the protocol provided by BioVision Inc. (Catalog number K761-200). Recombinant glutathione reductase was first treated with NADPH and 10 μM or 50 μM PVS, PVSN or Bay11-7082 for 30 min at room temperature. In the control group, recombinant glutathione reductase was treated with NADPH and the same volume of DMSO used in the treatment of drugs in the assay buffer. Following the addition of oxidized glutathione, the decrease in absorbance at A340 was monitored over 10 min.
Based on the proteomic results, we first examined whether PVS, PVSN and Bay 11-7082 affected the activity of glutathione reductase (FIG. 5). All compounds were ineffective in inhibiting glutathione reductase at 10 μM. However, PVSN and Bay 11-7082 at 50 μM inhibited the activity of glutathione reductase by 61% and 74%, respectively. […]

recombinant PRMT1 = biological target: T2, recombinant PRMT1 (Homo sapiens, UniProt Q99873); test: In vitro PRMT1 activity assay (histone H4 methylation, immunoblot); assay type: biochemical; conditions: for concentration that caused significant inhibition of methylation of histone H4: recombinant PRMT1, histone H4, S-adenosylmethionine; for IC50: three-point curve fit (5, 10, 100 μM), an estimation, read-out: IC50 (PRMT1, histone H4 as substrate)
T2 construct: purchased BPS Bioscience
T2 sequence (Q99873 whole entry): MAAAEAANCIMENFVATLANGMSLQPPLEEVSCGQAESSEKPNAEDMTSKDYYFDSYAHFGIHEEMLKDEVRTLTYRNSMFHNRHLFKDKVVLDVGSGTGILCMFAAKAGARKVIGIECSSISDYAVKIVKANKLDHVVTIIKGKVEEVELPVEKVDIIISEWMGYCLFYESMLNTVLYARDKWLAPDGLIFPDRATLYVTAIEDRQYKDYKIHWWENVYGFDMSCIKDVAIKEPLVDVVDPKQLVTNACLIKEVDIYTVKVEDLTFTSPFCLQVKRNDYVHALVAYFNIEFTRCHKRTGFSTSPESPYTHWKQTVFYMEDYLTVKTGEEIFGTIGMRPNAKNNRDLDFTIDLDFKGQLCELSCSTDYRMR
Description: Three-point IC50 curves may provide an estimation, but certainly not an accurate calculation (data is not shown).

PTPs in HeLa cells = test: Phosphotyrosine levels in HeLa cells (PTP inhibition, immunoblot); assay type: cell-based; conditions: 10 and 100 μM for 5 min
Description: FIG. 4 describes use of anti-PVS in recognition of PVSN and Bay 11-7082 adducts.
We next examined whether anti-PVS antiserum can be used in detection of target proteins probed by PVS analogs such as PVSN and Bay 11-7082. Treatment of PVSN and Bay 11-7082 at concentrations of 10 and 100 μM for 5 min increased the levels of phosphotyrosine modification in HeLa cells, especially Bay 11-7082 at 100 μM (FIG. 4) confirming their effects in PTP inhibition. PVSN-tagged proteins were abundantly recognized by anti-PVS antiserum (FIG. 5A), but only few Bay 11-7082-tagged proteins were detected by the anti-PVS antiserum (FIG. 5B). Therefore, anti-PVS antiserum can be readily used in the detection of proteins modified by PVS and PVSN.

[3] = system: PVS tagging of cysteine thiol groups of cellular proteins in HeLa cells; test: Competition of PVS tagging in HeLa cells or lysate (anti-PVS immunoblot); assay type: cell-based
Description: HeLa cells were treated with 10 μM to 1 mM PVS in PBS for 1 h or with 0.1-2 mM PVD in PBS for 30 min. In the case of PVS and PVD combined treatment, HeLa cells were pretreated with PVD for 30 min and then treated with PVS in PBS for 1 h.
Based on the observations that PVS and PVSN were PTP covalent inhibitors (22), we attempted to develop an antiserum against PVS and use the antiserum in the identification of PVS-tagged proteins through immunoblotting and immunoprecipitation. First, we confirmed the inhibitory activity of PVS on PTPs and tested the efficacy of our antiserum against PVS. […] Higher concentrations of PVS elicited higher levels of PVS modification, but with the same pattern. […] Specificity of the anti-PVS was further tested by the combined treatment of ethyl vinyl sulfone (EVS) and PVS. HeLa cells were pretreated with 10 μM to 1 mM EVS in PBS for 30 min and then treated with 100 μM PVS in PBS for 1 h.
Pervanadate is an irreversible PTP inhibitor by oxidizing the active-site cysteine thiol of PTPs (24). If both PVS and pervanadate target the same thiol group, pretreatment of pervanadate would hinder the tagging of PVS. […] Next, we tested the competition of BVT 948 and NSC 95397 on the tagging of PVS. BVT 948 (25) and NSC 95397 (26) are PTP and dual specificity phosphatase inhibitors, respectively. Treatment of both drugs elicited increased amounts of tyrosine phosphorylation, albeit with different sensitivity and pattern.
HeLa cells were cultured to about 90% confluence on a 10-cm dish in DMEM with 10% FBS (5×10^6~1×10^7 cells). HeLa cells were lysed by repeated pipetting with 900 μL 2% Triton X-100 in 20 mM Tris-HCl, pH 8.0. The lysate was centrifuged at 12,000×g for 10 min and the supernatant was aliquoted (200 μL) and treated with PVS, PVSN, or Bay 11-7082 of various concentrations at room temperature for 5 to 60 min. The stocks of 1000×PVS, 1000×PVSN, and 1000× Bay 11-7082 were prepared in DMSO. The reaction was stopped by adding 1,4-dithioerythreitol to a final concentration of 10 mM. The reaction solution was then mixed with equal volume of 2× SDS sample buffer. Ten μL sample solution was used for SDS gel electrophoresis and immunoblotting. The signal of GAPDH was used to adjust the amount of protein loading.

PC-9 cells = test: Afatinib labeling of proteins in PC-9 cells (anti-afatinib immunoblot); conditions: 1 h
Description: The control groups were treated with the same volume of DMSO.

recombinant RRM1 or RRM2 = test: Competition of afatinib labeling of recombinant RNR subunits; conditions: pretreatment 2.5 mM, then 10 μM afatinib

Compound: O=C(Nc1ccc2c(O)cc(S(=O)(=O)O)cc2c1)Nc1ccc2c(O)cc(S(=O)(=O)O)cc2c1 [AMI-1]
levels of protein ADMA in cell culture [1]: little effect

Compound: Cc1ccc(S(=O)(=O)/C=C/C#N)cc1 [Bay 11-7082]
inhibited the activity of glutathione reductase by ([2]; at 50 μM): 74% | concentration that caused significant inhibition of methylation of histone H4 (recombinant PRMT1): 2.5 µM | IC50 (recombinant PRMT1): 10.7 µM | levels in ADMA of 25 and 35 kDa ([1]; 3 h): led to decline | levels of phosphotyrosine modification (PTPs in HeLa cells): increased

Compound: C=CS(=O)(=O)CC [EVS, ethyl vinyl sulfone]
PVS modification ([3]; HeLa cells pretreated at 100 μM and 1 mM for 30 min, then 100 μM PVS 1 h): significantly attenuated

Compound: O=C1C(SCCO)=C(SCCO)C(=O)c2ccccc21 [NSC 95397]
blocking of PVS tagging, comparison ([3]; in vitro and in cellulo): blocked PVS tagging better than BVT 948

concentration that caused significant inhibition of methylation of histone H4 (recombinant PRMT1): 10 µM | IC50 (recombinant PRMT1): 23.3 µM
Compound: C=CS(=O)(=O)c1ccccc1 [PVS, Phenyl vinyl sulfone]
levels of protein ADMA in cell culture [1]: did not change

inhibition at 50 µM ([2]; read-out: inhibited the activity of glutathione reductase by): 61% | concentration that caused significant inhibition of methylation of histone H4 (recombinant PRMT1): 5 µM | IC50 (recombinant PRMT1): 10.4 µM
Compound: C=CS(=O)(=O)Oc1ccccc1 [PVSN, phenyl vinyl sulfonate]
levels of protein ADMA in cell culture [1]: decreased the levels of protein ADMA slightly | levels of phosphotyrosine modification (PTPs in HeLa cells): increased

Compound: CN(C)C/C=C/C(=O)Nc1cc2c(Nc3ccc(F)c(Cl)c3)ncnc2cc1O[C@H]1CCOC1 [afatinib]
concentration at which labeling signals were readily observed (PC-9 cells): 1 µM

Compound: Nc1ccn([C@@H]2O[C@H](CO)[C@@H](O)C2(F)F)c(=O)n1 [gemcitabine]
afatinib labeling (recombinant RRM1 or RRM2): almost completely blocked

Compound: pervanadate
tagging of PVS ([3]; HeLa cell lysate, 1 mM together with 100 μM PVS): almost completely blocked | tagging of PVS ([3]; HeLa cells pretreated with 1 mM for 30 min): completely blocked
